Laboratory results as given in PMC10244169, “Psychedelics promote plasticity by directly binding to BDNF receptor TrkB” (Nature Neuroscience, 2023).

Experiments:
TrkB = test: Western blot of TrkB protein expression in N2a cells; type: cell-based; details: WT and Y433F^+/−
Experimental: In a separate set of experiments to examine the effect of 5-HT2A activation, M100907 (100 nM) was administered as a 10 min pretreatment and remained in the medium for the rest of the experiment. Next, cells were lysed and centrifuged. […] The co-immunoprecipitation was carried out as previously described[11],[23],[24] with minor modifications. Briefly, Magnetic Dynabeads Protein G (Invitrogen, 10004D) were coated with anti-TrkB antibody (R&D Systems, AF1494) at 200 ng of antibody per 1 µl of beads in rotation (2 h, 4 °C). Finally, lysates were mixed with the coated beads (100 µg of total protein per 15 µl of beads) and incubated in rotation (overnight, 4 °C).
Proteins were separated according to their molecular weight by SDS–PAGE and transferred to a polyvinylidene fluoride membrane. Membranes were incubated with the following primary antibodies (all 1:1,000 in 3% BSA in TBS-T, overnight, 4 °C): anti-TrkB (R&D Systems, AF1494), anti-β-actin (Sigma-Aldrich, A1978), anti-phospho-mTOR (Cell Signaling Technology, 5536S), anti-phospho-p44/42 MAPK (Erk1/2) (Cell Signaling Technology, 9106S), anti-mTOR (Cell Signaling Technology, 2972S) and anti-p44/42 MAPK (Erk1/2) (Cell Signaling Technology, 9102S). […] Protein bands were visualized using enhanced chemiluminescent substrate (Thermo Scientific, 32132, ECL Plus) and imaged with a charge-coupled device camera (G:BOX, Syngene).

TrkA.TM chimera = test: ^3H-LSD saturation binding, TrkB with TMD of TrkA; details: TMD of TrkB replaced by that of TrkA
Experimental: Binding assays were performed as previously described with minor modifications. […] Samples from mouse embryo (E18) brains were also lysed, vortexed, sonicated and centrifuged for binding assays. Plates were then washed with PBS. […] For the competition binding assays with biotinylated R,R-HNK, the amino-biotinylation of R,R-HNK was performed using a commercial kit (Thermo Scientific, EZ-Link NHS-PEG4 Biotinylation Kit, 21455) and the reaction monitored by MS. A mixture of biotinylated R,R-HNK (10 µM) and unlabeled compounds (1 pM to 10 µM) in PBS was added to the 96-well plates containing the immunoprecipitated TrkB and incubated for 1 h at room temperature. […] Luminescence was determined via streptavidin conjugated with horseradish peroxidase (HRP; Thermo Fisher Scientific, 21126; 1:5,000, 1 h at room temperature) in reaction with the Pierce ECL substrate (Thermo Fisher Scientific, 32106). Luminescence from blank wells that contained all reagents but the sample lysates was used to determine nonspecific binding. To obtain the binding curves, results from binding assays were fitted to the equation of specific binding with Hill slope from GraphPad Prism 9.2. To calculate koff values, results were fitted to the equation of dissociation of one phase exponential decay from GraphPad Prism 9.2.

TrkB:PLCγ1 = molecular target: T1, TrkB:PLCγ1 (Rattus norvegicus, UniProt Q63604); test: ELISA of TrkB:PLCγ1 interaction in neuronal cultures; type: cell-based
T1 construct: endogenous in cells; host or cells: rat cortical neuronal cultures (E18, DIV21)
Experimental: The phosphorylation of TrkB (pY816) and interaction with PLCγ1 were assessed by enzyme-linked immunosorbent assay (ELISA) as previously described[11],[80],[81] with minor modifications. Briefly, white 96-well plates (PerkinElmer, OptiPlate 96F-HB) were precoated with goat anti-TrkB (R&D systems, AF1494; 1:500, overnight, 4 °C) antibody in carbonate buffer (pH 9.8) and blocked with 3% BSA in PBS with 0.1% Tween-20 (PBS-T) for 2 h at room temperature. […] Samples were incubated overnight at 4 °C, and 24 h later plates were washed with PBS-T and incubated with either rabbit anti-phospho-TrkB(Tyr816) (Cell Signaling Technology, 4168S; 1:2,000), rabbit anti-PLCγ1 (Cell Signaling Technologies, 5690S; 1:2,000) or rabbit anti-Trk (Cell Signaling Technologies, 92991; 1:2,000) antibodies overnight at 4 °C. After washing with PBS-T, plates were incubated with HRP-conjugated goat anti-rabbit (Bio-Rad, 170–5046; 1:5,000, 1 h, room temperature) antibody, followed by more washing with PBS-T. Finally, the chemiluminescent signal was read after brief incubation with Pierce ECL substrate (Thermo Fisher Scientific, 32106). Luminescence from blank wells that contained all reagents but the sample lysates was used to determine background signal.

mice = test: Contextual fear conditioning, extinction and fear reinstatement (incl. baseline locomotor activity); type: in vivo, mouse; details: for Mean, figure 7k (contextual fear conditioning) / Mean, figure 7i (contextual fear conditioning) / Mean, figure 7j (contextual fear conditioning): LSD group; for Mean Diff., ext fig 7e: e7e; for Mean Diff., ext fig 7f: e7f; for Mean Diff., ext fig 7o: e7o, Bonferroni's multiple comparisons test
Experimental: Male WT mice (C57BL/6JRccHsd, Envigo) were used for contextual fear conditioning experiments with and without extinction training as previously described[11],[34] with modifications. Briefly, animals were conditioned in context A (metallic bar flooring, transparent Plexiglass walls, 23 × 23 × 35 cm arena) with a series of five scrambled foot shocks (0.6 mA, 2 s) along a 480 s session. […] During the following 3 days, mice were exposed to extinction training in context A for 480 s every 24 h or placed for the same duration and number of sessions in context B (black planar floor, black nontransparent walls, 23 × 23 × 35 cm arena), which we categorized as extinction and no extinction trainings, respectively. Afterwards, animals were placed back into their home cage and left undisturbed for 3 weeks. Finally, all mice were reconditioned with a new set of five scrambled foot shocks (0.6 mA, 2 s) along a 480 s session in context A, and their fear reinstatement response was measured 24 h later for the same duration also in context A. All sessions were conducted under constant illumination (100 lux). For the contextual fear conditioning and fear reinstatement experiment with male WT and Y433F^+/−, we used the same protocol as for animals undergoing extinction training in context A above. Baseline freezing was established during the first conditioning session. Movement was measured by infrared beams placed on the sides of the conditioning chamber, and freezing was automatically determined by the fear conditioning apparatus and software (TSE Systems) and expressed as the percentage of time spent freezing.

[1] = WT:Saline vs. WT:LSD, uncorrected Fisher's LSD
[2] = Y433F+/-:Saline vs. Y433F+/-:LSD, uncorrected Fisher's LSD
[3] = WT mice, saline minus LSD, uncorrected Fisher's LSD
[4] = Y433F+/- mice, saline minus LSD, uncorrected Fisher's LSD
[5] = means over WT and Y433F+/- mice

T1 sequence (Q63604 32-821): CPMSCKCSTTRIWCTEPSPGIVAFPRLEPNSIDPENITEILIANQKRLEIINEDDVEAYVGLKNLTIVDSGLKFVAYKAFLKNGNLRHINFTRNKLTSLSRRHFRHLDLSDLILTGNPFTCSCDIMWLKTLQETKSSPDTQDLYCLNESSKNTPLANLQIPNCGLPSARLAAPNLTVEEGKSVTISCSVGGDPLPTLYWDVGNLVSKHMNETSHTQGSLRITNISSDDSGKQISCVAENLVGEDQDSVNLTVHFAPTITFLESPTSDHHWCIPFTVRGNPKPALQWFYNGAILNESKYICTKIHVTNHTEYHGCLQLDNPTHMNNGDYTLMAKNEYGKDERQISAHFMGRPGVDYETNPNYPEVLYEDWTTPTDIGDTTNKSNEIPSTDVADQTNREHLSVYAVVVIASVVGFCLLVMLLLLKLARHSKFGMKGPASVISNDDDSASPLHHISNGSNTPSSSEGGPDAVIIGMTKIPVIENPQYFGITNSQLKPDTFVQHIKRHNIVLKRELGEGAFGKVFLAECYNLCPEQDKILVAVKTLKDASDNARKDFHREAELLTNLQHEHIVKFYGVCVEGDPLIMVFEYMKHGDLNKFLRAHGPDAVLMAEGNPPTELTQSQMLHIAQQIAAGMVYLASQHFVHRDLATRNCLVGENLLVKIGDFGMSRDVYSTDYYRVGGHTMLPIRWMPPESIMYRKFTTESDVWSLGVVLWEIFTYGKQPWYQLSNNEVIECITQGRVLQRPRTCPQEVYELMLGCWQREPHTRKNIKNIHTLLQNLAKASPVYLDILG

In the case of `CCN(CC)C(=O)C1C=C2c3cccc4[nH]cc(c34)CC2N(C)C1` (stereo not shown) [LSD, lysergic acid diethylamide], the “total TrkB expression” value (TrkB) is reported as “No differences in total TrkB expression”, the LSD binding (TrkA.TM chimera) is reported as “completely abolishes LSD binding” and the “TrkB interaction with PLCγ1” value (TrkB:PLCγ1) is reported as “increases TrkB interaction with phospholipase C gamma 1 (PLCγ1)”. The “Mean Diff., Fig. 7i” value (mice; [1]) was 14.87, the “Mean Diff., Fig. 7i” value (mice; [2]) was -1.67 and the “Mean Diff., Fig. 7j” value (mice; [1]) was 16.98. For the same compound, the “Mean Diff., Fig. 7j” value (mice; [2]) was -1.138, the “Mean Diff., Fig. 7k” value (mice; Ext.:Saline vs. Ext.:LSD, uncorrected Fisher's LSD) was 21.67 and the “Mean Diff., Fig. 7k” value (mice; No ext.:Saline vs. No ext.:LSD, uncorrected Fisher's LSD) was 7.778. The “Mean, figure 7k (contextual fear conditioning)” value (mice; Ext. (extinction training)) was 20.42, the “Mean Diff., figure 7k, Ext.:Saline vs. Ext.:LSD” value (mice; Ext., saline minus LSD, uncorrected Fisher's LSD) was 21.67 and the “fear extinction without extinction training” value (mice; LSD alone, no extinction training) was “does not bring about fear extinction”. The “Mean, figure 7k (contextual fear conditioning)” value (mice; No ext.) was 44.56, the “Mean Diff., figure 7k, No ext.:Saline vs. No ext.:LSD” value (mice; No ext., saline minus LSD, uncorrected Fisher's LSD) was 7.778 and the “contextual extinction of conditioned fear response” value (mice; WT mice, 72 h after single administration, persists at least 4 weeks, with extinction training) was “facilitates contextual extinction of conditioned fear response”. The “Mean, figure 7i (contextual fear conditioning)” value (mice; WT mice) was 20.6, the “Mean, figure 7j (contextual fear conditioning)” value (mice; WT mice) was 39.47 and the “Mean Diff., figure 7i, WT:Saline vs. WT:LSD” value (mice; [3]) was 14.87. The “Mean Diff., figure 7j, WT:Saline vs. WT:LSD” value (mice; [3]) was 16.98, the “Mean, figure 7i (contextual fear conditioning)” value (mice; Y433F+/- mice) was 34.18 and the “Mean, figure 7j (contextual fear conditioning)” value (mice; Y433F+/- mice) was 54.05. The “Mean Diff., figure 7i, Y433F+/-:Saline vs. Y433F+/-:LSD” value (mice; [4]) was -1.67, the “Mean Diff., figure 7j, Y433F+/-:Saline vs. Y433F+/-:LSD” value (mice; [4]) was -1.138 and the “contextual extinction of conditioned fear response” value (mice; Y433F^+/− mice) was “these short- and long-term effects are lost”. For the same compound, the “Mean Diff., ext fig 7e” value (mice; [1]) was -2.065, the “Mean Diff., ext fig 7e” value (mice; [2]) was -2.882 and the “Mean Diff., ext fig 7f” value (mice; [1]) was -1.252. The “Mean Diff., ext fig 7f” value (mice; [2]) was -6.692, the “Mean Diff., ext fig 7o” value (mice; Ext.:Saline vs. Ext.:LSD) was 6.343 and the “Mean Diff., ext fig 7o” value (mice; No ext.:Saline vs. No ext.:LSD) was -0.7639. For the same compound, the “Predicted (LS) mean of LSD, figure 7i” value (mice; mean over WT and Y433F+/- mice) was 27.39, the “Predicted (LS) mean of LSD, figure 7j” value (mice; mean over WT and Y433F+/- mice) was 46.76 and the “Difference between predicted means (Saline - LSD), figure 7i” value (mice; [5]) was 6.598. For the same compound, the “Difference between predicted means (Saline - LSD), figure 7j” value (mice; [5]) was 7.923.
